Measurements reported in publication PMC7578299, “The antiviral effects of baloxavir marboxil against influenza A virus infection in ferrets” (Influenza and Other Respiratory Viruses, 2020).
“And” between values parts separate entries of the source, which are not always exact repeats. Equal values may be shown once. Read-outs that look alike come from different tables or passages of the source.

Columns and labels:
[1] = Pharmacokinetic analysis in ferrets after a single oral administration of BXM; assay type: in vivo, ferret
Method: One day prior to administration, group assignment was carried out taking body weight into account. Under isoflurane anesthesia, fasted ferrets (four per group) received BXM (10 or 30 mg/5 mL/kg) suspension orally using an intragastric tube. Blood samples were collected at 0.5, 1, 2, 4, 6, 8, and 24 hours after single oral administration of BXM and centrifuged to obtain plasma. The concentrations of BXA and BXM in plasma were determined by liquid chromatography‐tandem mass spectrometry (LC‐MS/MS). The lower limit of quantification of BXA and BXM in ferret plasma was 0.5 ng/mL. The pharmacokinetic parameters of BXA and BXM were calculated using non‐compartmental analysis module in Phoenix WinNonlin software (version 8.0; Certara LP) (https://onlinehelp.certara.com/phoenix/8.2/topics/nca.htm) based on a non‐compartment model analysis with uniform weighting.

[2] = Stability in plasma, human; assay type: in vitro ADME; conditions: incubation of BXM; for % Residual in plasma (BXA, calculated from BXM concentration at 0 min as molar concentration): mean of duplicate; for % Residual in plasma Individual value (BXA, from BXM concentration at 0 minutes as molar concentration): duplicates
Method: (§1) Approximately 30 mL of blood from Japanese male healthy volunteers was collected and centrifuged to obtain plasma. Blood samples from ferrets, rats, dogs, and monkeys were collected under anesthesia and centrifuged to obtain plasma. BXM was added to reach a final concentration of 200 ng/mL to all pooled plasma samples per species. After incubation for 5, 15, and 30 minutes at 37°C, twofold volume of ice‐cold acetonitrile/methanol (1:1, v/v) was added to the plasma samples to stop further reactions, which were then centrifuged at 1800 g for 10 minutes prior to LC‐MS/MS analysis of BXM in the supernatants.

[3] = Stability in plasma, ferret; assay type: in vitro ADME; conditions: incubation of BXM; for % Residual in plasma (BXA, calculated from BXM concentration at 0 min as molar concentration): mean of duplicate; for % Residual in plasma Individual value (BXA, from BXM concentration at 0 minutes as molar concentration): duplicates
Method: as §1

[4] = Stability in plasma, rat; assay type: in vitro ADME; conditions: incubation of BXM; for % Residual in plasma (BXA, calculated from BXM concentration at 0 min as molar concentration): mean of duplicate; for % Residual in plasma Individual value (BXA, from BXM concentration at 0 minutes as molar concentration): duplicates
Method: as §1

[5] = Stability in plasma, dog; assay type: in vitro ADME; conditions: incubation of BXM; for % Residual in plasma (BXA, calculated from BXM concentration at 0 min as molar concentration): mean of duplicate; for % Residual in plasma Individual value (BXA, from BXM concentration at 0 minutes as molar concentration): duplicates
Method: as §1

[6] = Stability in plasma, monkey; assay type: in vitro ADME; conditions: incubation of BXM; for % Residual in plasma (BXA, calculated from BXM concentration at 0 min as molar concentration): mean of duplicate; for % Residual in plasma Individual value (BXA, from BXM concentration at 0 minutes as molar concentration): duplicates
Method: as §1

[7] = system: influenza A/Kadoma/3/2006 strain; conditions: A/Kadoma/3/2006, yield reduction assay, cited from earlier work
[8] = set-up: method as in Koshimichi et al., J Pharm Sci 2019;108:1896–1904; conditions: Japanese patients, ref Koshimichi et al., J Pharm Sci 2019;108:1896–1904, cited from earlier work
[9] = 5% SDS water vs 0.5% MC, BXM 10 mg/kg
[10] = single oral BXM 10 mg/kg, 0.5% MC vehicle, mean of three ferrets
[11] = single oral BXM 10 mg/kg, 5% SDS water vehicle, mean of four ferrets
[12] = single oral BXM 10 mg/kg, individual ferrets (Ferret-01 to Ferret-04)
[13] = single oral BXM 10 mg/kg, mean of four ferrets
[14] = single oral BXM 30 mg/kg, 5% SDS water vehicle, mean of four ferrets
[15] = single oral BXM 30 mg/kg, individual ferrets (Ferret-05 to Ferret-08)
[16] = single oral BXM 30 mg/kg, mean of four ferrets

What does the source list for `O=C1c2c(O)c(=O)ccn2N([C@@H]2c3ccccc3SCc3c2ccc(F)c3F)[C@@H]2COCCN12` [BXA, baloxavir acid]?
AUC0-24hr, Ratio to 0.5% MC [1, 9]: 7.0; C24hr, Ratio to 0.5% MC [1, 9]: 13.6; Cmax, Ratio to 0.5% MC [1, 9]: 4.2; T1/2, Ratio to 0.5% MC [1, 9]: 1.5; Tmax, Ratio to 0.5% MC [1, 9]: 3.0; AUC0-24hr [1, 10]: 60.2 ng·h/mL; C24hr [1, 10]: 0.223 ng/mL; Cmax [1, 10]: 15.8 ng/mL; T1/2 [1, 10]: 4.60 h; Tmax [1, 10]: 0.50 h; AUC0-24 h [1, 11]: 421 ± 119 ng·h/mL; C 24 h [1, 11]: 3.03 ± 2.33 ng/mL and 3.03 ng/mL; C max [1, 11]: 66.6 ± 14.6 ng/mL; T 1/2 (terminal elimination half-life) [1, 11]: 6.91 ± 3.79 h; T max [1, 11]: 1.50 ± 0.58 h; AUC0-24hr, individual data [1, 12]: 292 ng·h/mL and 576 ng·h/mL and 439 ng·h/mL and 378 ng·h/mL; C24hr, individual data [1, 12]: 0.792 ng/mL and 3.90 ng/mL and 1.52 ng/mL and 5.90 ng/mL; Cmax, individual data [1, 12]: 59.4 ng/mL and 80.1 ng/mL and 77.3 ng/mL and 49.5 ng/mL; T1/2, individual data [1, 12]: 4.21 h and 6.47 h and 4.57 h and 12.4 h; Tmax, individual data [1, 12]: 1.00 hr (2×) and 2.00 hr (2×); AUC0-24 h [1, 13]: 0.871 ± 0.246 µM·h; C 24 h [1, 13]: 6.26 ± 4.82 nM; Cmax ([1]; single oral BXM 10 mg/kg, mean of four ferrets, read-out: C max): 138 ± 30 nM; AUC0-24 h [1, 14]: 3240 ± 3240 ng·h/mL; C 24 h [1, 14]: 9.91 ± 8.77 ng/mL and 9.91 ng/mL; C max [1, 14]: 365 ± 316 ng/mL; T 1/2 (terminal elimination half-life) [1, 14]: 4.44 ± 0.67 h; T max [1, 14]: 2.00 ± 1.41 h; AUC0-24hr, individual data [1, 15]: 7580 ng·h/mL and 3840 ng·h/mL and 1040 ng·h/mL and 508 ng·h/mL; C24hr, individual data [1, 15]: 21.3 ng/mL and 12.3 ng/mL and 3.38 ng/mL and 2.64 ng/mL; Cmax, individual data [1, 15]: 754 ng/mL and 489 ng/mL and 128 ng/mL and 89.6 ng/mL; T1/2, individual data [1, 15]: 3.90 h and 4.32 h and 4.12 h and 5.41 h; Tmax, individual data [1, 15]: 1.00 hr (2×) and 4.00 hr and 2.00 hr; AUC0-24 h [1, 16]: 6.71 ± 6.71 µM·h; C 24 h [1, 16]: 20.5 ± 18.2 nM; Cmax ([1]; single oral BXM 30 mg/kg, mean of four ferrets, read-out: C max): 755 ± 653 nM; % Residual in plasma (BXA, calculated from BXM concentration at 0 min as molar concentration) ([2]; 10 min): 8.3%; % Residual in plasma Individual value (BXA, from BXM concentration at 0 minutes as molar concentration) ([2]; 10 minutes): 8.4% and 8.3%; % Residual in plasma (BXA, calculated from BXM concentration at 0 min as molar concentration) ([2]; 20 min): 22.4%; % Residual in plasma Individual value (BXA, from BXM concentration at 0 minutes as molar concentration) ([2]; 20 minutes): 22.4%; % Residual in plasma (BXA, calculated from BXM concentration at 0 min as molar concentration) ([2]; 30 min): 38.1%; % Residual in plasma Individual value (BXA, from BXM concentration at 0 minutes as molar concentration) ([2]; 30 minutes): 38.4% and 37.8%; % Residual in plasma (BXA, calculated from BXM concentration at 0 min as molar concentration) ([3]; 10 min): 4.6%; % Residual in plasma Individual value (BXA, from BXM concentration at 0 minutes as molar concentration) ([3]; 10 minutes): 4.6% and 4.7%; % Residual in plasma (BXA, calculated from BXM concentration at 0 min as molar concentration) ([3]; 20 min): 13.9%; % Residual in plasma Individual value (BXA, from BXM concentration at 0 minutes as molar concentration) ([3]; 20 minutes): 13.8% and 14.1%; % Residual in plasma (BXA, calculated from BXM concentration at 0 min as molar concentration) ([3]; 30 min): 24.9%; % Residual in plasma Individual value (BXA, from BXM concentration at 0 minutes as molar concentration) ([3]; 30 minutes): 24.9% and 25.0%; % Residual in plasma (BXA, calculated from BXM concentration at 0 min as molar concentration) ([4]; 10 min): 104.6%; % Residual in plasma Individual value (BXA, from BXM concentration at 0 minutes as molar concentration) ([4]; 10 minutes): 102.8% and 106.3%; % Residual in plasma (BXA, calculated from BXM concentration at 0 min as molar concentration) ([4]; 20 min): 104.0%; % Residual in plasma Individual value (BXA, from BXM concentration at 0 minutes as molar concentration) ([4]; 20 minutes): 102.2% and 105.9%; % Residual in plasma (BXA, calculated from BXM concentration at 0 min as molar concentration) ([4]; 30 min): 103.2%; % Residual in plasma Individual value (BXA, from BXM concentration at 0 minutes as molar concentration) ([4]; 30 minutes): 103.0% and 103.4%; % Residual in plasma (BXA, calculated from BXM concentration at 0 min as molar concentration) ([5]; 10 min): 2.8%; % Residual in plasma Individual value (BXA, from BXM concentration at 0 minutes as molar concentration) ([5]; 10 minutes): 2.8%; % Residual in plasma (BXA, calculated from BXM concentration at 0 min as molar concentration) ([5]; 20 min): 8.2%; % Residual in plasma Individual value (BXA, from BXM concentration at 0 minutes as molar concentration) ([5]; 20 minutes): 8.1% and 8.2%; % Residual in plasma (BXA, calculated from BXM concentration at 0 min as molar concentration) ([5]; 30 min): 15.6%; % Residual in plasma Individual value (BXA, from BXM concentration at 0 minutes as molar concentration) ([5]; 30 minutes): 15.6%; % Residual in plasma (BXA, calculated from BXM concentration at 0 min as molar concentration) ([6]; 10 min): 9.0%; % Residual in plasma Individual value (BXA, from BXM concentration at 0 minutes as molar concentration) ([6]; 10 minutes): 8.9% and 9.1%; % Residual in plasma (BXA, calculated from BXM concentration at 0 min as molar concentration) ([6]; 20 min): 24.0%; % Residual in plasma Individual value (BXA, from BXM concentration at 0 minutes as molar concentration) ([6]; 20 minutes): 23.5% and 24.6%; % Residual in plasma (BXA, calculated from BXM concentration at 0 min as molar concentration) ([6]; 30 min): 43.0%; % Residual in plasma Individual value (BXA, from BXM concentration at 0 minutes as molar concentration) ([6]; 30 minutes): 44.0% and 42.1%; 90% effective concentration (EC90) [7]: 0.42 ng/mL; EC90 ([7]; read-out: 90% effective concentration (EC90)): 880 pM; plasma concentration at 24 hours ([8]; BXM 10 mg): 15.1 (range 6.38‐29.0) ng/mL; plasma concentration at 24 hours ([8]; BXM 40 mg): 61.5 (range 27.9‐118) ng/mL
